Counter-ions that a name gives are not always drawn.
Legend:
HO-1 (rat spleen) = target: T1, HO-1 (rat spleen) (Rattus norvegicus, UniProt P06762); assay: HO enzymatic activity in rat spleen microsomal fraction (CO formed from methemalbumin, gas chromatography); type: biochemical; conditions: rat spleen microsomes, average ± standard deviation of replicate experiments; for IC50: read-out: IC50 HO-1 (rat spleen)/μM
T1 construct: Spleen microsomes were used as a source of HO-1; from tissue; host or cells: spleen microsomal fraction of adult male Sprague-Dawley rats
T1 sequence (P06762 1-289): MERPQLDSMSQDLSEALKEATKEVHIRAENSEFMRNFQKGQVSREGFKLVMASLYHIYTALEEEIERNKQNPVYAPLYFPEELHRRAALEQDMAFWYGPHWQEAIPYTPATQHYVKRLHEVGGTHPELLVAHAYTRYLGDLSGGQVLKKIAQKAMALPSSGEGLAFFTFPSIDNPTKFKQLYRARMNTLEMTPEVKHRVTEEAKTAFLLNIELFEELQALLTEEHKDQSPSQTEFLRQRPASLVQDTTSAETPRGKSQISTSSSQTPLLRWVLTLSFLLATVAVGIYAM
Procedure: (§1) Incubations for HO activity analysis were done under conditions for which the rate of CO formation (pmol CO×min^−1×mg protein^−1) was linear with respect to time and microsomal protein concentration. Briefly, reaction mixtures (150 μL) consisting of 100 mM phosphate buffer (pH 7.4), 50 μM methemalbumin, and 1 mg/mL protein were pre-incubated with the inhibitors at final concentrations ranging from 0.1-100 μM for 10 minutes at 37° C. Reactions were initiated by adding NADPH at a final concentration of 1 mM and incubations were performed for an additional 15 minutes at 37° C.
(§2) Incubations for HO activity analysis were done under conditions for which the rate of CO formation (pmol CO/mg protein/minute) was linear with respect to time and microsomal protein concentration. Briefly, reaction mixtures (150 μL) consisting of 100 mM phosphate buffer (pH 7.4), 50 μM methemalbumin and 1 mg/mL protein were pre-incubated with the vehicle (ethanol or water in which the inhibitors were dissolved), or inhibitors at final concentrations ranging from 0.1-1000 μM for 10 minutes at 37° C. Reactions were initiated by adding β-NADPH at a final concentration of 1 mM and incubations were carried out for an additional 15 minutes at 37° C. Reactions were stopped by instantly freezing the reaction mixture on pulverized dry ice and CO formation was measured by gas chromatography using a TA 3000R Process Gas Analyzer (Trace Analytical/Ametek, Newark, Del., USA).
(§3) The values on the abscissa represent the decimal logarithm of the inhibitor's concentration (in μM), whereas the values of the activity on the ordinate are expressed as a percentage of the control experiments without inhibitor.
(§4) The IC50 values for the replicate experiments were employed to generate the reported standard deviation value.

HO-2 (rat brain) = target: T2, HO-2 (rat brain) (Rattus norvegicus, UniProt P23711); assay: HO enzymatic activity in rat brain microsomal fraction (CO formed from methemalbumin, gas chromatography); type: biochemical; conditions: rat brain microsomes, average ± standard deviation of replicate experiments; for IC50: read-out: IC50 HO-2 (rat brain)/μM
T2 construct: brain microsomes were used as a source of HO-2; from tissue; host or cells: brain microsomal fraction of adult male Sprague-Dawley rats
T2 sequence (P23711 1-315): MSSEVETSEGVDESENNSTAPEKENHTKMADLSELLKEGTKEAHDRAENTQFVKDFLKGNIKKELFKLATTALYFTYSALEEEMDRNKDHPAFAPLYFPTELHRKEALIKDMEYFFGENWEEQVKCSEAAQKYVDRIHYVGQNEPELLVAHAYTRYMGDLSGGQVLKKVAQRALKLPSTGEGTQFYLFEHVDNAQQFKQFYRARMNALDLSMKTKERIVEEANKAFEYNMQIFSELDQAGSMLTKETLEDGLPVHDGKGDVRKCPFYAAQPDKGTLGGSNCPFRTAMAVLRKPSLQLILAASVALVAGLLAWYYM
Procedure: as §1, §2, §3, §4

In the case of `Cl.OC(Cn1ccnc1)Cn1ccnc1` [1,3-Di-(1H-imidazol-1-yl)propan-2-ol dihydrochloride], the “IC50 HO-1 (rat spleen)/μM” value (HO-1 (rat spleen)) is reported as “Inactive” and the “IC50 HO-2 (rat brain)/μM” value (HO-2 (rat brain)) is reported as “Inactive”.
`c1cn(CCCCc2ccc(CCCCn3ccnc3)cc2)cn1` [1,4-bis[(4-1H-imidazol-1-yl)butyl]benzene dihydrochloride] was tested, and the IC50 (HO-1 (rat spleen)) was 0.4 ± 0.1 µM and the IC50 (HO-2 (rat brain)) was 8 ± 2 µM.
`c1cn(CCCCCCCCn2ccnc2)cn1` [1,8-bis-(1H-imidazol-1-yl)octane dihydrochloride] gave an IC50 (HO-1 (rat spleen)) of over 100 µM and an IC50 (HO-2 (rat brain)) of over 100 µM.
Work on `c1cn(CCCCCCCCCCn2ccnc2)cn1` [1,10-bis-(1H-imidazol-1-yl)decane dihydrochloride] yielded an IC50 (HO-1 (rat spleen)) of about 10 µM and an IC50 (HO-2 (rat brain)) of about 14 µM.
For `c1cn(CCCCCCCCCCCCn2ccnc2)cn1` [1,12-bis-(1H-imidazol-1-yl)dodecane dihydrochloride], the IC50 (HO-1 (rat spleen)) was about 4 µM and the IC50 (HO-2 (rat brain)) was about 9 µM.
`O=C(CCc1ccc([N+](=O)[O-])cc1)Cn1ccnc1` [1-(1H-Imidazol-1-yl)-4-(4-nitro-phenyl)-butan-2-one hydrochloride] was tested, and the IC50 (HO-1 (rat spleen)) was 1.8 ± 0.4 µM and the IC50 (HO-2 (rat brain)) was 6.2 ± 0.1 µM.
For `CCC(=O)Cn1ccnc1` [1-(1H-Imidazol-1-yl)-butan-2-one hydrochloride], the IC50 (HO-1 (rat spleen)) was over 100 µM and the IC50 (HO-2 (rat brain)) was over 100 µM.
For `CC(=O)Cn1ccnc1` [1-(1H-Imidazol-1-yl)-propan-2-one], the “IC50 HO-1 (rat spleen)/μM” value (HO-1 (rat spleen)) was “Not Active” and the “IC50 HO-2 (rat brain)/μM” value (HO-2 (rat brain)) was “Not Active”.
Work on `O=C(Cn1ccnc1)c1ccc2c(c1)OCCO2` [1-(2,3-dihydro-benzo[1,4]dioxin-6-yl)-2-imidazol-1-yl-ethanone hydrochloride] yielded an IC50 (HO-1 (rat spleen)) of 73 ± 10 µM and an IC50 (HO-2 (rat brain)) of over 100 µM.
Compound `O=C(Cn1cncn1)c1ccc(Cl)cc1Cl` [1-(2,4-dichloro-phenyl)-2-[1,2,4]triazol-1-yl-ethanone] has an IC50 (HO-1 (rat spleen)) of 4.1 ± 0.9 µM and an IC50 (HO-2 (rat brain)) of over 100 µM.
`O=C(Cn1ccnc1)c1ccc(Cl)cc1Cl` [1-(2,4-dichloro-phenyl)-2-imidazol-1-yl-ethanone hydrochloride] was tested, and the IC50 (HO-1 (rat spleen)) was 2.2 ± 0.5 µM and the IC50 (HO-2 (rat brain)) was 15 ± 1 µM.
In the case of `O=C(Cn1cncn1)c1cc(Cl)ccc1Cl` [1-(2,5-Dichloro-phenyl)-2-[1,2,4]triazol-1-yl-ethanone], the IC50 (HO-1 (rat spleen)) is reported as 18.4 ± 0.5 µM and the IC50 (HO-2 (rat brain)) is reported as over 100 µM.
`O=C(Cn1ccnc1)c1cc(Cl)ccc1Cl` [1-(2,5-dichloro-phenyl)-2-imidazol-1-yl-ethanone hydrochloride] was tested, and the IC50 (HO-1 (rat spleen)) was 6.6 ± 0.2 µM and the IC50 (HO-2 (rat brain)) was 58 ± 10 µM.
`c1ccc(CCC2(Cn3cnnn3)OCCO2)cc1` [1-(2-Phenethyl-[1,3]dioxolan-2-ylmethyl)-1H-tetrazole hydrochloride] was tested, and the IC50 (HO-1 (rat spleen)) was 39 ± 5 µM and the IC50 (HO-2 (rat brain)) was over 100 µM.
`c1ccc(CCC2(Cn3cnc(-c4ccccc4)c3)OCCO2)cc1` [1-(2-Phenethyl-[1,3]dioxolan-2-ylmethyl)-4-phenyl-1H-imidazole hydrochloride] was tested, and the IC50 (HO-1 (rat spleen)) was over 100 µM and the IC50 (HO-2 (rat brain)) was over 100 µM.
With `c1cn(CCC23CC4CC(CC(C4)C2)C3)cn1` [1-(2-adamantan-1-yl-ethyl)-1H-imidazole hydrochloride] the IC50 (HO-1 (rat spleen)) was 3 ± 1 µM and the IC50 (HO-2 (rat brain)) was over 100 µM.
For `c1ccc(CSCCn2ccnc2)cc1` [1-(2-benzylsulfanyl-ethyl)-1H-imidazole], the IC50 (HO-1 (rat spleen)) was 4 ± 1 µM and the IC50 (HO-2 (rat brain)) was over 10 µM.
For `c1ccc(-c2ccc(C3(Cn4ccnc4)OCCO3)cc2)cc1` [1-(2-biphenyl-4-yl-[1,3]dioxolan-2-ylmethyl)-1H-imidazole hydrochloride], the IC50 (HO-1 (rat spleen)) was 16.2 ± 0.4 µM and the IC50 (HO-2 (rat brain)) was over 100 µM.
`Cc1nccn1CC(=O)CCc1ccccc1` [1-(2-methyl-imidazol-1-yl)-4-phenyl-butan-2-one hydrochloride] was tested, and the IC50 (HO-1 (rat spleen)) was over 100 µM and the IC50 (HO-2 (rat brain)) was over 100 µM.
`c1ccc2cc(C3(Cn4cncn4)OCCO3)ccc2c1` [1-(2-naphthalen-2-yl-[1,3]dioxolan-2-ylmethyl)-1H-[1,2,4]triazole] showed an IC50 (HO-1 (rat spleen)) of 3.58 ± 0.08 µM and an IC50 (HO-2 (rat brain)) of over 100 µM.
Work on `c1ccc2cc(C3(Cn4ccnc4)OCCO3)ccc2c1` [1-(2-naphthalen-2-yl-[1,3]dioxolan-2-ylmethyl)-1H-imidazole hydrochloride] yielded an IC50 (HO-1 (rat spleen)) of 2.63 ± 0.06 µM and an IC50 (HO-2 (rat brain)) of over 100 µM.
`c1ccc(OCCn2ccnc2)cc1` [1-(2-phenoxy-ethyl)-1H-imidazole hydrochloride] gave an IC50 (HO-1 (rat spleen)) of 61 ± 29 µM and an IC50 (HO-2 (rat brain)) of over 100 µM.
